Experimental data as given in PMC11092195, “Selective Detection of Active Extracellular Granzyme A by Using a Novel Fluorescent Immunoprobe with Application to Inflammatory Diseases” (ACS Pharmacology & Translational Science, 2024).
Structures can show the parent of a compound that is named as a salt.

Target: T1, hGzmK (human GzmK) (Homo sapiens, UniProt P49863)
T1 construct: commercial, Enzo Life Sciences
T1 sequence (P49863 27-264): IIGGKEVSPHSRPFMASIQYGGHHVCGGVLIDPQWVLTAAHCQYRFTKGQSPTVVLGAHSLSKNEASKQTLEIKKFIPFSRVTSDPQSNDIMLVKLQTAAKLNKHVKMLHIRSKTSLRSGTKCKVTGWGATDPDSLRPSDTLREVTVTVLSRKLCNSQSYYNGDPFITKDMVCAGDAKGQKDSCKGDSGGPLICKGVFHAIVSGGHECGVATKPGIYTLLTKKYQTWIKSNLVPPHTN
Assay: thioester hydrolysis with DTNB, used to normalise enzyme units
Assay type: biochemical
Settings: Tris-HCl pH 8.5, 37 °C

NCCCC[C@H](NC(=O)OCc1ccccc1)C(=O)SCc1ccccc1 [Nα-CBZ-L-Lysine thiobenzyl ester hydrochloride]
thioester hydrolysis with DTNB, used to normalise enzyme units: activity of the different trypsin-like proteases was equated using a common substrate
